pIC50, pKi: −log10 of the molar value. In brackets after ≈: the same amount, converted by molar mass. Activity calls are given as the source filed them. The rule behind the calls is not given here. Numbered stars: 1 amine (or outer) side, 2 acyl side, 3 side chain; on linkers, the order of the positions; unused ones are H or OH. Bridge positions count the residues as written; N and C are the ends. Square brackets hold non-standard residues; d marks the D form. Peptide text beside a SMILES is read from it. * marks the point of attachment. hTyr(3S-OH,4S-OH,3'-OSO3H) = N[C@H](C(=O)O)[C@H](O)[C@@H](O)c1ccc(O)c(OS(=O)(=O)O)c1; Orn(4R-OH,5R-OH) = O=C([C@H](C[C@@H](O)[C@@H](O)N[*:3])N[*:1])[*:2]; Pro(3S-OH,4S-Me) = C[C@H]1CN[C@H](C(=O)O)[C@H]1O; X1 = CCCCCOc1ccc(-c2cc(-c3ccc(C(=O)*)cc3)no2)cc1; Gln(3R-OH) = NC(=O)C[C@@H](O)[C@H](N)C(=O)O; Hyp = O=C(O)[C@@H]1C[C@@H](O)CN1
Tests used:
[1] = system: Candida albicans; assay: Antimicrobial activity against micafungin-resistant Candida albicans ATCC 76615R incubated for 24 hrs by two fold serial dilution method; type: functional
[2] = system: Aspergillus fumigatus; assay: Antimicrobial activity against Aspergillus fumigatus GIMCC 3.19 assessed as inhibition of cell wall synthesis in presence of sorbitol; type: functional
[3] = Inhibition of Candida tropicalis ATCC 750 chitin synthase using UDP-GlcNAc as substrate by TMB based microplate analyzer
[4] = system: Aspergillus flavus; assay: Antimicrobial activity against Fluconazole-resistant Aspergillus flavus ATCC 16870R incubated for 24 hrs by two fold serial dilution method; type: functional
[5] = system: Candida tropicalis; assay: Inhibition of Candida tropicalis ATCC 750 chitin synthase using UDP-GlcNAc as substrate at 300 ug/ml by TMB based microplate analyzer relative to control; settings: dose 300.0 µg/ml
[6] = system: Candida albicans; assay: Antimicrobial activity against Candida albicans ATCC 76615 assessed as inhibition of cell wall synthesis in presence of sorbitol; type: functional
[7] = system: Candida albicans; assay: Antimicrobial activity against fluconazole-resistant Candida albicans ATCC 76615R incubated for 24 hrs by two fold serial dilution method; type: functional
[8] = system: Cryptococcus neoformans; assay: Antimicrobial activity against Fluconazole-resistant Cryptococcus neoformans ATCC 32719R incubated for 24 hrs by two fold serial dilution method; type: functional
[9] = system: Cryptococcus neoformans; assay: Antimicrobial activity against Cryptococcus neoformans ATCC 32719 assessed as inhibition of cell wall synthesis in presence of sorbitol; type: functional
[10] = system: Candida albicans; assay: Antimicrobial activity against Candida albicans ATCC 76615 incubated for 24 hrs by two fold serial dilution method; type: functional
[11] = system: Aspergillus fumigatus; assay: Antimicrobial activity against Aspergillus fumigatus GIMCC 3.19 incubated for 24 hrs by two fold serial dilution method; type: functional
[12] = system: Aspergillus flavus; assay: Antimicrobial activity against Aspergillus flavus ATCC 16870 incubated for 24 hrs by two fold serial dilution method; type: functional
[13] = system: Aspergillus fumigatus; assay: Antimicrobial activity against Fluconazole-resistant Aspergillus fumigatus GIMCC 3.19R incubated for 24 hrs by two fold serial dilution method; type: functional
[14] = system: Aspergillus flavus; assay: Antimicrobial activity against Aspergillus flavus ATCC 16870 assessed as inhibition of cell wall synthesis in presence of sorbitol; type: functional
[15] = system: Cryptococcus neoformans; assay: Antimicrobial activity against Cryptococcus neoformans ATCC 32719 incubated for 24 hrs by two fold serial dilution method; type: functional
[16] = system: Cryptococcus neoformans; assay: Antimicrobial activity against Cryptococcus neoformans ATCC 32719 incubated for 24 hrs in presence of fluconazole by checkerboard method; type: functional
[17] = system: Candida albicans; assay: Antimicrobial activity against Candida albicans ATCC 76615 incubated for 24 hrs in presence of polyoxin B by checkerboard method; type: functional
[18] = system: Aspergillus flavus; assay: Synergistic antimicrobial activity against Aspergillus flavus ATCC 16870 assessed as fractional inhibitory concentration index incubated for 24 hrs in presence of polyoxin B by checkerboard method; type: functional
[19] = system: Aspergillus fumigatus; assay: Antimicrobial activity against Aspergillus fumigatus GIMCC 3.19 incubated for 24 hrs in presence of fluconazole by checkerboard method; type: functional
[20] = system: Aspergillus flavus; assay: Synergistic antimicrobial activity against Aspergillus flavus ATCC 16870 assessed as fractional inhibitory concentration index incubated for 24 hrs in presence of fluconazole by checkerboard method; type: functional
[21] = system: Aspergillus fumigatus; assay: Synergistic antimicrobial activity against Aspergillus fumigatus GIMCC 3.19 assessed as fractional inhibitory concentration index incubated for 24 hrs in presence of fluconazole by checkerboard method; type: functional
[22] = system: Cryptococcus neoformans; assay: Additive antimicrobial activity against Cryptococcus neoformans ATCC 32719 assessed as fractional inhibitory concentration index incubated for 24 hrs in presence of fluconazole by checkerboard method; type: functional
[23] = system: Aspergillus flavus; assay: Antimicrobial activity against Aspergillus flavus ATCC 16870 incubated for 24 hrs in presence of fluconazole by checkerboard method; type: functional
[24] = system: Cryptococcus neoformans; assay: Antimicrobial activity against Cryptococcus neoformans ATCC 32719 incubated for 24 hrs in presence of polyoxin B by checkerboard method; type: functional
[25] = system: Candida albicans; assay: Antimicrobial activity against Candida albicans ATCC 76615 incubated for 24 hrs in presence of fluconazole by checkerboard method; type: functional
[26] = system: Aspergillus fumigatus; assay: Antimicrobial activity against Aspergillus fumigatus GIMCC 3.19 incubated for 24 hrs in presence of polyoxin B by checkerboard method; type: functional
[27] = system: Candida albicans; assay: Synergistic antimicrobial activity against Candida albicans ATCC 76615 assessed as fractional inhibitory concentration index incubated for 24 hrs in presence of fluconazole by checkerboard method; type: functional
[28] = system: Candida albicans; assay: Synergistic antimicrobial activity against Candida albicans ATCC 76615 assessed as fractional inhibitory concentration index incubated for 24 hrs in presence of polyoxin B by checkerboard method; type: functional
[29] = system: Aspergillus fumigatus; assay: Synergistic antimicrobial activity against Aspergillus fumigatus GIMCC 3.19 assessed as fractional inhibitory concentration index incubated for 24 hrs in presence of polyoxin B by checkerboard method; type: functional
[30] = system: Aspergillus flavus; assay: Antimicrobial activity against Aspergillus flavus ATCC 16870 incubated for 24 hrs in presence of polyoxin B by checkerboard method; type: functional
[31] = system: Cryptococcus neoformans; assay: Additive antimicrobial activity against Cryptococcus neoformans ATCC 32719 assessed as fractional inhibitory concentration index incubated for 24 hrs in presence of polyoxin B by checkerboard method; type: functional
[32] = system: Candida tropicalis; assay: Non-competitive inhibition of Candida tropicalis ATCC 750 chitin synthase using UDP-GlcNAc as substrate assessed as decrease in Vmax with constant Km by Lineweaver-Burk plot analysis
[33] = Binding affinity to Candida tropicalis ATCC 750 chitin synthase assessed as inhibition constant by Lineweaver-Burk plot analysis
[34] = system: Cryptococcus neoformans; assay: Synergistic antimicrobial activity against Cryptococcus neoformans ATCC 32719 assessed as fractional inhibitory concentration index incubated for 24 hrs in presence of polyoxin B by checkerboard method; type: functional
[35] = system: Candida albicans; assay: Additive antimicrobial activity against Candida albicans ATCC 76615 assessed as fractional inhibitory concentration index incubated for 24 hrs in presence of polyoxin B by checkerboard method; type: functional
[36] = system: Candida albicans; assay: Additive antimicrobial activity against Candida albicans ATCC 76615 assessed as fractional inhibitory concentration index incubated for 24 hrs in presence of fluconazole by checkerboard method; type: functional
[37] = system: Cryptococcus neoformans; assay: Synergistic antimicrobial activity against Cryptococcus neoformans ATCC 32719 assessed as fractional inhibitory concentration index incubated for 24 hrs in presence of fluconazole by checkerboard method; type: functional

Compound | MIC [1] [µg/mL] | MIC [2] [µg/mL] | pIC50 [3] | MIC [4] [µg/mL] | inhibition [5] [%] | MIC [6] [µg/mL] | MIC [7] [µg/mL] | MIC [8] [µg/mL] | MIC [9] [µg/mL] | MIC [10] [µg/mL] | MIC [11] [µg/mL] | MIC [12] [µg/mL] | MIC [13] [µg/mL] | MIC [14] [µg/mL] | MIC [15] [µg/mL] | other results
CCCCCOc1ccc(-c2cc(-c3ccc(C(=O)N[C@H]4C[C@@H](O)[C@@H](O)NC(=O)[C@@H]5[C@@H](O)[C@@H](C)CN5C(=O)[C@H]([C@H](O)CC(N)=O)NC(=O)[C@H]([C@H](O)[C@@H](O)c5ccc(O)c(OS(=O)(=O)O)c5)NC(=O)[C@@H]5C[C@@H](O)CN5C(=O)[C@H]([C@@H](C)O)NC4=O)cc3)no2)cc1 [MICAFUNGIN] (X1-[Orn(4R-OH,5R-OH)]T[Hyp][hTyr(3S-OH,4S-OH,3'-OSO3H)][Gln(3R-OH)][Pro(3S-OH,4S-Me)]; lactam 1-C) | > 256 | – | – | – | – | – | – | – | – | – | – | – | – | – | – | –
O=C(c1cc(Cl)ccc1Cl)N1CCN(CC(=O)N2CCCC23Cc2ccccc2NC3=O)CC1 (stereo unspecified) | 32 (≈ 63.8 µM) | 64 | 3.74 | 64 (≈ 128 µM) | 67.6 | 64 | 64 (≈ 128 µM) | 64 (≈ 128 µM) | 128 | 4 (≈ 7.98 µM) | 8 (≈ 16 µM) | 8 (≈ 16 µM) | 64 (≈ 128 µM) | 32 | 8 (≈ 16 µM) | –
NC(=O)OC[C@H](O)[C@@H](O)[C@H](N)C(=O)N[C@H](C(=O)O)[C@H]1O[C@@H](n2cc(CO)c(=O)[nH]c2=O)[C@H](O)[C@@H]1O [POLYOXIN B] | – | 64 | 4.05 | – | 86.1 | 64 | – | – | 128 | 8 (≈ 15.8 µM) | 8 (≈ 15.8 µM) | 8 (≈ 15.8 µM) | – | 64 | 16 (≈ 31.5 µM) | –
O=C(c1c(F)cccc1F)N1CCN(CC(=O)N2CCCC23Cc2ccccc2NC3=O)CC1 (stereo unspecified) | 64 (≈ 137 µM) | 64 | 3.96 | 64 (≈ 137 µM) | 83.4 | 128 | 64 (≈ 137 µM) | 128 (≈ 273 µM) | 256 | 1 (≈ 2.13 µM) | 0.5 (≈ 1.07 µM) | 2 (≈ 4.27 µM) | 64 (≈ 137 µM) | 256 | 8 (≈ 17.1 µM) | MIC [16]: 1 µg/mL; MIC [17]: 1 µg/mL; fractional inhibitory concentration index (FICI) [18]: 0.375; MIC [19]: 2 µg/mL; fractional inhibitory concentration index (FICI) [20]: 0.75; fractional inhibitory concentration index (FICI) [21]: 0.625; fractional inhibitory concentration index (FICI) [22]: 1.125; MIC [23]: 4 µg/mL; MIC [24]: 2 µg/mL; MIC [25]: 1 µg/mL; MIC [26]: 2 µg/mL; fractional inhibitory concentration index (FICI) [27]: 0.75; fractional inhibitory concentration index (FICI) [28]: 0.625; fractional inhibitory concentration index (FICI) [29]: 0.75; MIC [30]: 1 µg/mL; fractional inhibitory concentration index (FICI) [31]: 1.125
O=C(c1cccc(Br)c1)N1CCN(CC(=O)N2CCCC23Cc2ccccc2NC3=O)CC1 (stereo unspecified) | – | – | 3.49 | – | 58.8 | – | – | – | – | 8 (≈ 15.6 µM) | 16 (≈ 31.3 µM) | 16 (≈ 31.3 µM) | – | – | 32 (≈ 62.6 µM) | –
Cc1ccc(C(=O)N2CCN(CC(=O)N3CCCC34Cc3ccccc3NC4=O)CC2)cc1 (stereo unspecified) | – | – | – | – | 52.3 | – | – | – | – | 16 (≈ 35.8 µM) | 32 (≈ 71.7 µM) | 16 (≈ 35.8 µM) | – | – | 64 (≈ 143 µM) | –
O=C(c1cccc([N+](=O)[O-])c1)N1CCN(CC(=O)N2CCCC23Cc2ccccc2NC3=O)CC1 (stereo unspecified) | 64 (≈ 134 µM) | 64 | 3.92 | 32 (≈ 67 µM) | 81.2 | 128 | 64 (≈ 134 µM) | 64 (≈ 134 µM) | 256 | 4 (≈ 8.38 µM) | 8 (≈ 16.8 µM) | 4 (≈ 8.38 µM) | 64 (≈ 134 µM) | 128 | 32 (≈ 67 µM) | inhibition [32]: Active; pKi [33]: 3.85
O=C(c1ccc([N+](=O)[O-])cc1)N1CCN(CC(=O)N2CCCC23Cc2ccccc2NC3=O)CC1 (stereo unspecified) | 128 (≈ 268 µM) | 64 | 3.96 | 128 (≈ 268 µM) | 80.2 | 64 | 32 (≈ 67 µM) | 64 (≈ 134 µM) | 64 | 2 (≈ 4.19 µM) | 1 (≈ 2.09 µM) | 2 (≈ 4.19 µM) | 64 (≈ 134 µM) | 32 | 2 (≈ 4.19 µM) | MIC [16]: 2 µg/mL; MIC [17]: 1 µg/mL; fractional inhibitory concentration index (FICI) [18]: 0.375; MIC [19]: 2 µg/mL; fractional inhibitory concentration index (FICI) [34]: 0.5; fractional inhibitory concentration index (FICI) [20]: 0.75; fractional inhibitory concentration index (FICI) [35]: 1.125; fractional inhibitory concentration index (FICI) [21]: 1; fractional inhibitory concentration index (FICI) [36]: 1.125; fractional inhibitory concentration index (FICI) [37]: 0.75; MIC [23]: 2 µg/mL; MIC [24]: 4 µg/mL; MIC [25]: 0.5 µg/mL; MIC [26]: 4 µg/mL; fractional inhibitory concentration index (FICI) [29]: 0.75; MIC [30]: 1 µg/mL
